Consider three molecules from patent publication US10300151B2, “Methods and systems for noninvasive fluorescence-based functional imaging of kidneys” (Board of Regents, The University of Texas System, priority 2015, dated 2019).

The test system of series [1] is kidneys of Balb/c mice. In words: Noninvasive whole-body fluorescence kidney imaging of intact mice after i.v. injection of fluorophore. Particulars: for excretion route: fluorescence from bladder at 65 min / intestines after 10 min p.i.; for skin clearance half-life: observed during 60 min p.i.; for fraction of first phase of skin intensity increase / fraction of second phase of skin intensity increase / skin fluorescence intensity increase half-life, first phase / skin fluorescence intensity increase half-life, second phase: two-phase exponential growth, FIG. 10; for duration of kidney contrast/visualisation in noninvasive imaging: after i.v. injection. Type of series: in vivo, mouse. The protocol:
Invasive and noninvasive imaging of normal mice, UUO mice and sham mice were performed using the following protocol. The protocol for invasive and noninvasive imaging differed in only in that for invasive imaging, the mouse's kidneys are exposed via removal of the mouse's back skin.
Prior to imaging, hair-removed Balb/c mice were anesthetized using 3% isoflurane. A catheter filled with PBS was inserted into each mouse's tail vein. The mouse, along with its tail vein catheter, was placed in supine position on the stage of fluorescence imaging system, with the mouse's back facing the excitation light and charge-coupled device (CCD) camera.
Fluorescence imaging of the each of mice proceeded as follows. Bright-field and fluorescence images of the each mouse was taken before injection with fluorophores. When its breathing rate decreased to 10-14 times per 15 s, the mouse was injected with 200 μL of a fluorophore solution. The fluorophore solutions used were PBS solutions of either an organic dye (Cy3, Cy7, or IRDye 800CW) or GS-AuNPs. The concentrations of Cy3, Cy7 and IRDye 800CW were 100, 10, and 10 μM, respectively, and these solutions were filtered through a 0.02 μm filter before injection. The solution of NIR-emitting GS-AuNPs contained 10 mg/mL gold atom as determined by inductively coupled plasma mass spectrometry (ICP-MS). Once the designated fluorophore solution was injected, whole body fluorescence images of each mouse were collected consecutively until 60 minutes post-injection. To ensure reproducible results, each mouse's anesthesia status was maintained at constant level before injection of fluorophores. Unlike clinical renographic procedures, no diuretic agents were used, and the animals were not hydrated prior to fluorescence imaging.
The parameters for acquiring the fluorescence images were shown as follows: Cy3, excitation at 550/10 nm, emission at 600/20 nm, exposure time of 2 s, no binning (FIGS. 4, 6, and 7); Cy7, excitation of 710/10 nm, emission of 790/20 nm, exposure time of 5 s, 2×2 binning (FIGS. 5, 8, and 9); IRDye 800CW, excitation of 710/10 nm, emission of 790/20 nm, 2×2 binning, exposure time of 5 s (FIGS. 21 and 55); GS-AuNPs, excitation of 710/10 nm, emission of 830/20 nm; exposure time of 30 s, 2×2 binning (FIGS. 24, 36, and 54).
Regions of interest (ROIs) designated “kidney areas” were defined around the left and right kidneys on the fluorescence image showing high kidney intensity. Four ROIs designated “surrounding tissue areas” were drawn in proximity to the each kidney; the mean values of these four ROIs were considered the “mean intensity of surrounding tissue area” for the respective kidney. The percentage of kidney contrast enhancement was calculated as follows:
[formula] For GS-AuNPs, the ROIs of “skin” were chosen from the back area close to the tail, so as to avoid the influence of bright kidneys. The time-dependent fluorescence intensity of skin (or kidneys) and percentage of kidney contrast enhancement (FIGS. 10-14, 22, 23, 25, 26, 37, 56, and 57). The curves were fitted with exponential functions to generate the kinetics of kidney contrast change or the kinetics of accumulation and clearance of the fluorophores in the skin and kidneys (FIGS. 10, 22, and 23). Deconvolution and parametric analysis of the kidney TFICs were performed using Origin 8 (FIGS. 27-35; Tables 1 and 2). Pathological Analysis

Series [2] has as its system kidneys of Balb/c mice. In words: Invasive fluorescence kidney imaging of skin-removed mice after i.v. injection of fluorophore. It is filed as in vivo, mouse. Particulars: for time at which skin fluorescence intensity surpasses left and right kidney intensity: kidneys surgically exposed; for time of maximum skin fluorescence intensity: FIG. 26 (Cy7: FIG. 10); for peak skin fluorescence intensity as percentage of maximum kidney fluorescence intensity: kidney fluorescence from invasive imaging data, FIG. 26. The procedure:
Invasive and noninvasive imaging of normal mice, UUO mice and sham mice were performed using the following protocol. The protocol for invasive and noninvasive imaging differed in only in that for invasive imaging, the mouse's kidneys are exposed via removal of the mouse's back skin. […] As shown in panel a, the kidneys are paired bean-shaped organs lying on either side of the vertebral column. The right kidney (RK) of a mouse is usually slightly higher than it left kidney (LK). Since the kidneys locate retroperitoneally against the dorsal body wall, LK (shown in panel b) and RK (shown in panel c) can be exposed once the back skin above the kidneys was removed. The interference of skin on kidney imaging can be avoided in such an invasive way. Prior to imaging, hair-removed Balb/c mice were anesthetized using 3% isoflurane. A catheter filled with PBS was inserted into each mouse's tail vein. The mouse, along with its tail vein catheter, was placed in supine position on the stage of fluorescence imaging system, with the mouse's back facing the excitation light and charge-coupled device (CCD) camera. Fluorescence imaging of the each of mice proceeded as follows. Bright-field and fluorescence images of the each mouse was taken before injection with fluorophores. When its breathing rate decreased to 10-14 times per 15 s, the mouse was injected with 200 μL of a fluorophore solution. The fluorophore solutions used were PBS solutions of either an organic dye (Cy3, Cy7, or IRDye 800CW) or GS-AuNPs. The concentrations of Cy3, Cy7 and IRDye 800CW were 100, 10, and 10 μM, respectively, and these solutions were filtered through a 0.02 μm filter before injection. The solution of NIR-emitting GS-AuNPs contained 10 mg/mL gold atom as determined by inductively coupled plasma mass spectrometry (ICP-MS). Once the designated fluorophore solution was injected, whole body fluorescence images of each mouse were collected consecutively until 60 minutes post-injection. To ensure reproducible results, each mouse's anesthesia status was maintained at constant level before injection of fluorophores. Unlike clinical renographic procedures, no diuretic agents were used, and the animals were not hydrated prior to fluorescence imaging. The parameters for acquiring the fluorescence images were shown as follows: Cy3, excitation at 550/10 nm, emission at 600/20 nm, exposure time of 2 s, no binning (FIGS. 4, 6, and 7); Cy7, excitation of 710/10 nm, emission of 790/20 nm, exposure time of 5 s, 2×2 binning (FIGS. 5, 8, and 9); IRDye 800CW, excitation of 710/10 nm, emission of 790/20 nm, 2×2 binning, exposure time of 5 s (FIGS. 21 and 55); GS-AuNPs, excitation of 710/10 nm, emission of 830/20 nm; exposure time of 30 s, 2×2 binning (FIGS. 24, 36, and 54). Regions of interest (ROIs) designated “kidney areas” were defined around the left and right kidneys on the fluorescence image showing high kidney intensity. Four ROIs designated “surrounding tissue areas” were drawn in proximity to the each kidney; the mean values of these four ROIs were considered the “mean intensity of surrounding tissue area” for the respective kidney. The percentage of kidney contrast enhancement was calculated as follows: [formula] For GS-AuNPs, the ROIs of “skin” were chosen from the back area close to the tail, so as to avoid the influence of bright kidneys. The time-dependent fluorescence intensity of skin (or kidneys) and percentage of kidney contrast enhancement (FIGS. 10-14, 22, 23, 25, 26, 37, 56, and 57). The curves were fitted with exponential functions to generate the kinetics of kidney contrast change or the kinetics of accumulation and clearance of the fluorophores in the skin and kidneys (FIGS. 10, 22, and 23). Deconvolution and parametric analysis of the kidney TFICs were performed using Origin 8 (FIGS. 27-35; Tables 1 and 2). Pathological Analysis

For series [3] the following is noted: in mice, blood; cited from earlier work.
Another series concerns kidneys of UUO mice. Put plainly: Noninvasive fluorescence renography in unilateral ureter obstruction (UUO) and sham mice. Type of series: in vivo, mouse. From the text: To obtain unilateral […] obstruction (UUO) mice, male Balb/c mice (6-8 weeks old, with about 20 g) were anesthetized with isoflurane. For each mouse, the left kidney was exposed an incision on the left flank, and the left ureter was obstructed completely near the renal pelvis using a nonabsorbable suture. For mice in the sham group, the left ureter was exposed using the same surgical procedure but ureter ligation was not performed. Female Balb/c mice (8-10 weeks old, weighing about 20 g) were used as normal (non-UUO) mice for other experiments, such as those shown in FIGS. 4-19. The hair on the Balb/c mice was removed using hair removal lotion at least 24 h before the imaging experiments.
Fluorescence imaging of the each of mice proceeded as follows. Bright-field and fluorescence images of the each mouse was taken before injection with fluorophores. […] The solution of NIR-emitting GS-AuNPs contained 10 mg/mL gold atom as determined by inductively coupled plasma mass spectrometry (ICP-MS). Once the designated fluorophore solution was injected, whole body fluorescence images of each mouse were collected consecutively until 60 minutes post-injection. […] Unlike clinical renographic procedures, no diuretic agents were used, and the animals were not hydrated prior to fluorescence imaging. […]

Where [4] appears, read: 0.6 min p.i., noninvasive, N=3, mean±s.d.
The mark [5] stands for this setting: 60 min p.i., noninvasive, N=3, mean±s.d.
Setting [6] is: noninvasive, single exponential decay.

“Also recorded” adds a separate entry of the source.

Turning to `CCN1C(=CC=CC2=[N+](CCCCCC(=O)O)c3ccc(S(=O)(=O)O)cc3C2(C)C)C(C)(C)c2cc(S(=O)(=O)[O-])ccc21` [Cy3, disulfo-Cy3 carboxylic acid], in the series on kidneys of Balb/c mice [1], the “excretion route” value was “can be excreted into urine through renal clearance”, the skin clearance half-life came to 56.5 min, the “fraction of first phase of skin intensity increase” value is given as 18.1% and the “fraction of second phase of skin intensity increase” value came out at 81.9%. Besides, in the series with kidneys of Balb/c mice [1], the “skin fluorescence intensity increase half-life, first phase” value is 0.2 min and the “skin fluorescence intensity increase half-life, second phase” value is 2.8 min. In the series with kidneys of Balb/c mice [1] (intact mouse, Ex/Em 550/600 nm), the “contrast enhancement of noninvasively imaged mouse kidney” value is “failed to enhance contrast”. Moreover, in the series with kidneys of Balb/c mice [2] (invasive imaging), the “time at which skin fluorescence intensity surpasses left and right kidney intensity” value is listed as 1.5 min p.i.

As to `CCN1C(=CC=CC=CC=CC2=[N+](CCCCCC(=O)O)c3ccc(S(=O)(=O)O)cc3C2(C)C)C(C)(C)c2cc(S(=O)(=O)[O-])ccc21` [Cy7, disulfo-Cy7 carboxylic acid], the “duration of kidney contrast/visualisation in noninvasive imaging” value in the series on kidneys of Balb/c mice [1] (intact mouse) is on record as “less than 10 min”. Besides, in the series with kidneys of Balb/c mice [1], the “excretion route” value was “can be excreted into urine through renal clearance; also recorded: can also be excreted through a hepatic route”, the skin clearance half-life result is “No clearance of Cy7 from the skin was observed during 60 min p.i”, the “fraction of first phase of skin intensity increase” value is 33.5% and the “fraction of second phase of skin intensity increase” value came to 66.5%. For the same molecule, in the series with kidneys of Balb/c mice [1], the “skin fluorescence intensity increase half-life, first phase” value amounted to 1.5 min and the “skin fluorescence intensity increase half-life, second phase” value came out at 7.4 min. In addition, in the series with kidneys of Balb/c mice [2], the “time of maximum skin fluorescence intensity” value amounted to 35 min p.i and the “peak skin fluorescence intensity as percentage of maximum kidney fluorescence intensity” value was 95.3%. Further, the “time at which skin fluorescence intensity surpasses left and right kidney intensity” value in the series on kidneys of Balb/c mice [2] (invasive imaging) stood at 13.2 min p.i.

For the molecule `CC1(C)C(/C=C/C2=C(Oc3ccc(S(=O)(=O)O)cc3)C(=C/C=C3/N(CCCCS(=O)(=O)O)c4ccc(S(=O)(=O)[O-])cc4C3(C)C)/CCC2)=[N+](CCCCCC(=O)O)c2ccc(S(=O)(=O)O)cc21` [IRDye 800CW, IRDye 800CW carboxylate], in the series on kidneys of Balb/c mice [1] (setting [4]), the “percentage contrast enhancement of left kidney (LK)” value stood at 67.6±7.1% and the “percentage contrast enhancement of right kidney (RK)” value was 49.9±9.0%. Moreover, in the series on kidneys of Balb/c mice [1] (setting [5]), the “percentage of contrast enhancement, LK” value is −4.7±0.8% and the “percentage of contrast enhancement, RK” value is listed as −4.8±5.1%. Moreover, in the series with kidneys of Balb/c mice [1] (intact mouse), the “duration of kidney contrast/visualisation in noninvasive imaging” value is given as “less than 5 min”. Further, in the series with kidneys of Balb/c mice [1] (noninvasive imaging, FIG. 22), the “time at which skin fluorescence intensity is halfway to saturation” value turned out to be 4.1 min. Besides, in the series on kidneys of Balb/c mice [1] (setting [6]), the “decay half-life of percentage contrast enhancement, LK” value is on record as 4.2 min and the “decay half-life of percentage contrast enhancement, RK” value is 4.5 min. In addition, in the series with kidneys of Balb/c mice [2], the “time of maximum skin fluorescence intensity” value turned out to be 25 min p.i and the “peak skin fluorescence intensity as percentage of maximum kidney fluorescence intensity” value came out at 75.5±9.3%. Further, in the series on kidneys of Balb/c mice [2] (invasive imaging, FIG. 23), the “clearance half-life from kidney, LK, first component” value was 4.3 min; the “clearance half-life from kidney, LK, second component” value stood at 28.0 min; the “clearance half-life from kidney, RK, first component” value turned out to be 4.7 min; the “clearance half-life from kidney, RK, second component” value stood at 18.9 min. In addition, in the series on kidneys of Balb/c mice [2] (invasive imaging, FIG. 23), the “fraction of first clearance component, LK” value is recorded as 50.1%; the “fraction of first clearance component, RK” value came to 46.0%; the “fraction of second clearance component, LK” value stood at 49.9%; the “fraction of second clearance component, RK” value is 54.0%. Besides, the “elimination half-life (t1/2β)” value in series [3] was 58.8 ± 4.8 min. Further, in the series with kidneys of UUO mice (LK, RK and skin, FIGS. 56-57), the “time-dependent intensity curves in sham vs UUO mice” value was “very similar profiles of time-dependent intensity curve in sham and UUO mice”. For the same molecule, the “visibility of kidneys in UUO mouse” value in the series on kidneys of UUO mice (noninvasive imaging, UUO mouse) is “both UUO LK and RK disappeared after 5 min p.i”.
